Compound: Cc1cc(C(F)(F)F)nn1CC(=O)N1CCC(c2csc(NC(=O)Cc3c(F)cccc3Cl)n2)CC1 [I.as.001, 2-(2-chloro-6-fluoro-phenyl)-N-(4-{1-[2-(5-methyl-3-trifluoromethyl-pyrazol-1-yl)-acetyl]-piperidin-4-yl}-thiazol-2-yl)-acetamide]
- melting point: 249 to 251 °C
